Test results published in patent US20250155433A1, “FLUORESCENT SENSORS FOR DETECTION OF SIDEROPHORES AND OTHER MOLECULES PRODUCED BY BACTERIAL PATHOGENS” (Kansas State University Research Foundation, priority 2021, published 2025).
pKd: −log10 of the molar value.

How the values were obtained:
[1] = target: T1, HsaSCN (human siderocalin) (Homo sapiens, UniProt P80188, Q148C); experiment: Fluorescence quenching binding to purified HsaSCN-FM sensor; conditions: ferric complexes and porphyrins; Cys residue Q128C, FM-labeled purified protein; NB = no binding; read-out: Affinity (KD) of sensor HsaSCN
T1 construct: adds a 6H-tag at either the N- or C-termini of the mature proteins; 6-His (N); made in house; host or cells: E. coli BL21 (pET28), IPTG-induced; purified on Talon Superflow
T1 sequence (P80188 21-198 Q148C): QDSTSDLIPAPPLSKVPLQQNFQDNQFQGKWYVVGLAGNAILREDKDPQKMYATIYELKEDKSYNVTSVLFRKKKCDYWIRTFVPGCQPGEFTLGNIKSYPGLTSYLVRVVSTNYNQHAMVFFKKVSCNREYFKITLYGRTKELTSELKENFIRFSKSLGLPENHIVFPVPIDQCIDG

CcrHutA = experiment: Fluorescence quenching binding to CcrHutA-FM sensor; parameters: species or system Caulobacter crescentus; conditions: porphyrins; Cys residue A635C, FM-labeled; NB = no binding; read-out: Affinity (KD) of sensor CcrHutA
Procedure: (§1) Fluorescence modifications. For modifications with maleimide fluorophores, we inoculated E. coli strains OKN3, OKN13, OKN359 or OKN1359, harboring plasmids that encoded a Cys mutant LGP, from frozen stocks into LB, grew them overnight and sub-cultured at 1% into iron-deficient MOPS minimal media, with shaking (200 rpm) at 37° C. for 10-12 h, until late exponential phase. After collecting the cells by centrifugation at 7500×g for 15 min, and washing with 50 mM NaHPO4, pH 6.7, we labeled the Cys-mutant LGP with 5 μM FM in 50 mM NaHPO4, pH 6.7 for 15 min at 37° C. FM. We terminated the labeling reactions with 100 μM β-mercaptoethanol. […] After electrophoresis, we first visualized the fluorescence labeling on a Typhoon 8600 Biomolecular Scanner (GE/Amersham), and then stained the gels with Coomassie blue R (153).
(§2) Fluorescence spectroscopic binding determinations. We observed fluorophore-labeled cells in an SLM AMINCO 8100 fluorescence spectrometer, upgraded with an OLIS operating system and software (OLIS SpectralWorks, OLIS Inc., Bogart, GA), to control its shutters, polarizers and data collection. We also utilized an OLIS Clarity fluorescence spectrometer for fluorescence assays. […] We performed each measurement in triplicate and calculated the mean value of F/F0 at each ligand concentration. […]

PaeFepA = target: T2, PaeFepA (Pseudomonas aeruginosa, UniProt Q05098, S296C); experiment: Fluorescence quenching binding to PaeFepA-FM sensor
T2 construct: expressed in transfected cells; host or cells: E. coli OKN3/OKN13/OKN359/OKN1359 carrying a pITS23 derivative
Procedure: as §1, §2

EcoFepB = target: T3, EcoFepB (Escherichia coli, UniProt P0AEL6, T297C); experiment: biochemical; assay type: binding
T3 construct: adds a 6H-tag at either the N- or C-termini of the mature proteins; 6-His (N); made in house; host or cells: E. coli BL21 (pET28), IPTG-induced; purified on Talon Superflow
T3 sequence (P0AEL6 27-318 T297C): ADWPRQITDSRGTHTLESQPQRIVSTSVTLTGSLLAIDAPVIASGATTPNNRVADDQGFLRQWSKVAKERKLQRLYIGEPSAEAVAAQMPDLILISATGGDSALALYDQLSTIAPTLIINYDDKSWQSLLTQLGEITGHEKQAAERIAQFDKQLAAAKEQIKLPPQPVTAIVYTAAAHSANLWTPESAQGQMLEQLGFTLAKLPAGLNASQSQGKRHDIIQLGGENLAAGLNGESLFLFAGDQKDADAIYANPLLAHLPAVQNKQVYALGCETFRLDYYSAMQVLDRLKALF
Source text: Cys Mutant protein expression and fluorescent labeling. The vector for LGP production, pITS23, carries wild-type EcofepA under control of its native, Fur-regulated promoter. For expression of each of the E. coli LGP (Fiu, FhuA, IutA, Cir, BtuB) we replaced EcofepA in pITS23 with the alternate LGP structural gene, with its own signal sequence, such that the iron-regulated EcofepA promoter-controlled biosynthesis. For LGP from of other species (KpnFepA, KpnIroN, KpnFyuA, AbaBauA, PaeFepA, PaeFpvA, CcrHutA), we replaced the sequence encoding mature EcoFepA with the sequence encoding the foreign mature LGP, downstream from the EcoFepA signal sequence, and regulated by the EcofepA promoter. […] We evaluated the expression and labeling of each of the cloned LGP by growing the appropriate E. coli host strain (OKN3, OKN359, OKN13 or OKN1359), harboring the plasmid constructs of interest, in iron-deficient MOPS medium to late log phase (A600 nm=2.5-3.5). We subsequently analyzed SDS-PAGE resolved samples of bacterial OM, or purified protein fractions, for fluorescence emissions at […] before staining with Coomassie blue R (FIGS. 7, 8, 9). In some cases, we used mouse monoclonal (α-EcoFepA) antibodies or rabbit polyclonal (α-FepB) antisera to determine the expression levels and stoichiometry of FM-labeling, which allowed quantification of expression. […]

KpnFepA4984 = KpnFepA4984 (Klebsiella pneumoniae, UniProt A0ACD7TVS5, A414C); experiment: Fluorescence quenching binding to KpnFepA4984-FM sensor; conditions: read-out: Affinity (KD) of sensor KpnFepA 4984, apo siderophore; apo (parenthetic value); A390C
Procedure: as §1, §2

EcoFepA = target: T4, EcoFepA (Escherichia coli, UniProt P05825, A720C); experiment: biochemical; assay type: binding
T4 construct: expressed in transfected cells; host or cells: E. coli OKN3/OKN13/OKN359/OKN1359 carrying pITS23 (fepA under its own promoter)
T4 sequence (P05825 23-746 A720C): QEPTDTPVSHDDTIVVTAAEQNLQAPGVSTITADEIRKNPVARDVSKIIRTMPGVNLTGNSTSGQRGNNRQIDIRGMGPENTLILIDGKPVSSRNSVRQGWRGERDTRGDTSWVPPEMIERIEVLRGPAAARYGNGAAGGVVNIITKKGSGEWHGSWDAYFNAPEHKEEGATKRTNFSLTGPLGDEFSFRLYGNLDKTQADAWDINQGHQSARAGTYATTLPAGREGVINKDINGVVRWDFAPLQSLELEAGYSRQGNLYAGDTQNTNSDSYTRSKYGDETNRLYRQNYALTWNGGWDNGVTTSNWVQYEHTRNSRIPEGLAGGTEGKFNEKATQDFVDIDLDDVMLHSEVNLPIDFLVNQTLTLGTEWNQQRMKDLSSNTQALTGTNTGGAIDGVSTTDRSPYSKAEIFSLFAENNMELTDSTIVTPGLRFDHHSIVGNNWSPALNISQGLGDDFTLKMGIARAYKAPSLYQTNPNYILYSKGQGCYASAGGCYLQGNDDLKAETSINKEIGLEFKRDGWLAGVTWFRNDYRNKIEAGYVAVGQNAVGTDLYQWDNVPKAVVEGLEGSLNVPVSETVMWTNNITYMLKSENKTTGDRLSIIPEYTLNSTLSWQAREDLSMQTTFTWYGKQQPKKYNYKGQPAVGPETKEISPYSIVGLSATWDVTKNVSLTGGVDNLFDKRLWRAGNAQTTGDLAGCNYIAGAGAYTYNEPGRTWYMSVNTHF
Procedure: Fluorescence modifications. For modifications with maleimide fluorophores, we inoculated E. coli strains OKN3, OKN13, OKN359 or OKN1359, harboring plasmids that encoded a Cys mutant LGP, from frozen stocks into LB, grew them overnight and sub-cultured at 1% into iron-deficient MOPS minimal media, with shaking (200 rpm) at 37° C. for 10-12 h, until late exponential phase. After collecting the cells by centrifugation at 7500×g for 15 min, and washing with 50 mM NaHPO4, pH 6.7, we labeled the Cys-mutant LGP with 5 μM FM in 50 mM NaHPO4, pH 6.7 for 15 min at 37° C. FM. We terminated the labeling reactions with 100 μM β-mercaptoethanol. After collecting the fluoresceinated cells by centrifugation at 7500×g for 15 min, and washing with 50 mM NaHPO4, pH 6.7, we re-suspended them in PBS plus 0.2% glucose. We either immediately used the labeled cells in spectroscopic experiments, or rested them on ice (up to 24 h), or added glycerol to 15% and stored them (indefinitely) as 1 mL aliquots at −70° C. In the latter case, after thawing the labeled cells we pelleted them by centrifugation in a microfuge, washed them once with and re-suspended them in PBS containing 0.2% glucose. Lastly, for evaluation of protein expression or the extent of FM-labeling we solubilized aliquots of the cell suspensions with sample buffer, and subjected them to SDS-PAGE. After electrophoresis, we first visualized the fluorescence labeling on a Typhoon 8600 Biomolecular Scanner (GE/Amersham), and then stained the gels with Coomassie blue R (153).
Fluorescence spectroscopic binding determinations. We observed fluorophore-labeled cells in an SLM AMINCO 8100 fluorescence spectrometer, upgraded with an OLIS operating system and software (OLIS SpectralWorks, OLIS Inc., Bogart, GA), to control its shutters, polarizers and data collection. We also utilized an OLIS Clarity fluorescence spectrometer for fluorescence assays. For binding determinations we deposited 2.5×10^7 labeled cells in a quartz cuvette (final volume, 2 mL) with stirring at 37° C., measured the initial fluorescence (F0), and then added increasing concentrations of an iron complex while monitoring the quenching of fluorescence emissions (F) at 520 nm. We performed each measurement in triplicate and calculated the mean value of F/F0 at each ligand concentration. We plotted 1−F/F0 vs [ligand] and analyzed the data by the 1-site binding model of Grafit 6.0.12 (Erithacus Ltd. West Sussex, UK), that fits data to a single site saturation curve, where the amount of ligand bound is plotted as a function of the amount free:
These plots yielded KD values for each of the receptor-ligand interactions, with associated standard errors.
Table 1 lists KD values from analysis of fluorescence quenching with ferric or apo (parenthetic values) siderophores or porphyrins. For each determination, we measured the extent of fluorescence quenching of an FLGP, when exposed to sequentially increasing concentrations of the listed metal complexes, as plotted in FIGS. 2-4. We performed each experiment 2 or 3 times. The tabulated KD values are from single, representative experiments, in which we collected each data point in triplicate, plotted F/F0 vs [ligand] for each quenching titration, and fitted the curves to a single site binding model using Grafit 6.012 (Erithacus Ltd, […], UK).

KpnIroN = KpnIroN (Klebsiella pneumoniae, UniProt A0ACD7U953, T234C); experiment: Fluorescence quenching binding to KpnIroN-FM sensor; conditions: read-out: Affinity (KD) of sensor KpnIroN, apo siderophore; apo (parenthetic value); T210C
Procedure: as §1, §2

KpnFepA1658 = KpnFepA1658 (Klebsiella pneumoniae, UniProt A6T631, A407C); experiment: Fluorescence quenching binding to KpnFepA1658-FM sensor; conditions: read-out: Affinity (KD) of sensor KpnFepA 1658, apo siderophore; apo (parenthetic value); A382C
Procedure: as §1, §2

Row | Compound | pKd [1] | pKd (CcrHutA) | pKd (PaeFepA) | pKd (EcoFepB) | pKd (KpnFepA4984) | pKd (EcoFepA; Affinity (KD) of sensor EcoFepA, apo siderophore, apo (parenthetic value), A698C) | pKd (EcoFepA; KD, EcoFepA / EcoFepA-FM) | pKd (KpnIroN) | pKd (KpnFepA1658)
1 | hemin [Hn] | 6.47 | 6.82 | – | – | – | – | – | – | –
2 | O=C(N[C@H]1COC(=O)[C@@H](NC(=O)c2cccc(O)c2O)COC(=O)[C@@H](NC(=O)c2cccc(O)c2O)COC1=O)c1cccc(O)c1O [Ent, enterobactin] | – | – | 5.77 | 5.22 | 5.48 | 7.52 | 7.37 | 7.40 | 7.15
